Data as given in patent US9278527B2, “Ink jet recording ink, ink jet recording method, ink jet recording head, and ink jet recording apparatus” (CANON FINETECH INC., priority 2013, dated 2016).
Where two headings read alike, the source gives them in different places.

Assays:
[1] = Hydrophilicity-hydrophobicity coefficient from water activity value of 20% aqueous solution (equation (A)); format: physicochemical
[2] = 20% aqueous solution, water activity by chilled mirror dew point method (AquaLab CX-3TE) at 25° C., equation (A)

Row | Molecule | Hydrophilicity-hydrophobicity coefficient [1, 2] | Solubility (Solubility in water) [g/100 g H2O] | Hydrophilicity-hydrophobicity coefficient [1]
1 | CC(O)C(O)CO (stereo not drawn) [1,2,3-Butanetriol] | 0.22 | > 20 | 
2 | OCCC(O)CO (stereo not drawn) [1,2,4-Butanetriol] | 0.15 | > 20 | 
3 | OCCCCC(O)CO (stereo not drawn) [1,2,6-Hexanetriol] | 0.28 | > 20 | 
4 | CCC(O)CO (stereo not drawn) [1,2-Butanediol] | 0.90 | > 20 | 
5 | CCCCC(O)CO (stereo not drawn) [1,2-Hexanediol] | 0.97 | > 20 | 
6 | CCCC(O)CO (stereo not drawn) [1,2-Pentanediol] | 0.93 | > 20 | 
7 | OCCCCCO [1,5-Pentanediol] | 0.41 | > 20 | 
8 | OCCCCCCO [1,6-Hexanediol] | 0.76 | > 20 | 
9 | OCCCCCCCO [1,7-Heptanediol] | 0.73 | > 20 | 
10 | CC(O)CC(C)O (stereo not drawn) [2,4-Pentanediol] | 0.86 | > 20 | 
11 | CC(C)(O)CCO [3-Methyl-1,3-butanediol] | 0.90 | > 20 | 
12 | CC(CCO)CCO [3-Methyl-1,5-Pentanediol] | 0.54 | > 20 | 
13 | O=C1NCCN1 [Ethylene urea] | 0.30 | > 20 | 
14 | OCC(O)CO [Glycerin] | 0.11 | > 20 | 
15 | OC[C@@H](O)[C@@H](O)[C@H](O)[C@@H](O)CO [Sorbitol] | 0.21 | > 20 | 
16 | OCCOCCOCCO [Triethylene glycol] | 0.07 | > 20 | 
17 | NC(N)=O [Urea] | 0.20 | > 20 | 
18 | Bishydroxyethyl sulfone |  |  | 0.21
19 | Polyethylene glycol 200 | −0.09 | > 20 | 
20 | Polyethylene glycol 600 | −0.43 | > 20 | 
